Test system: Trioza erytreae
Format: in vivo

For `CC1(S(=O)(=O)[O-])CC(=O)c2ccccc2C1=O.[Na+]` (centres unmarked) [MSB, menadione sodium bisulphite], the “trees that showed leaves with the typical symptoms of the Trioza erytreae attack” value (Plot A 2000 trees, Plot B 300 trees, Plot C 100 trees, end of the summer of 2010) was “None” and the “control of the Trioza erytreae attacks” value (citrus trees, foliar treatment once a month with 80 ppm of MSB in aqueous solution from February 2010, assessed at the end of the summer of 2010) was 100%.
